Structures can show the parent of a compound that is named as a salt.
Assays:
[1] = target: T1, Full-length inactive AKT1 (Homo sapiens, UniProt P31749); assay: Inactive Akt HTRF Assay (Akt1)
Procedure: AKT1 activity was assayed using CisBio KinEASE™ HTRF Assay technology. This technology utilizes a proprietary biotinylated peptide substrate (STKS3), streptavidin labeled XL665 antibody, and STK antibody-Eu^3+-cryptate. AKT1 activation was achieved by the addition of the activating kinases PDK1 and MAPKAPK2, lipid vesicles, and ATP. The extent of STKS3 biotinylated peptide phosphorylation was determined using a phospho-STK antibody-Eu^3+-cryptate and streptavidin labeled XL665 antibody. XL665 was stimulated by Eu^3+-cryptate resulting in a TR-FRET signal proportional to the SKS3 phosphorylation level.

[2] = tested on: A2780; assay: MTS Assay, cell proliferation, A2780; format: cell-based; conditions: Homo sapiens, read-out: Average of [CELL], IC50, MTS (72 hours; 10 Percent; FBS) A2780
Procedure: (§1) Cell proliferation analysis. Cell survival was determined by the MTS assay. Briefly, cells were plated in a 96-well plate at 2,000-10,000 cells per well, cultured for 24 hours in complete growth medium, and then treated with various drugs and drug combinations for 72 hours. MTS was added and incubated for 4 hour, followed by assessment of cell viability using the microplate reader at 570 nm. Data were normalized to untreated controls and analyzed with Microsoft Excel.

[3] = target: T1, Full-length inactive AKT1; assay: Inactive Akt Alpha Screen Assay; format: biochemical
Summary of the method: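 AlphaScreen read-out (excitation 640 nm, emission 570 nm) after 90 min incubation at room temperature in the dark. Signal comes from crosstide phosphorylation by AKT1, which was activated by added PDK1, MAPKAPK2, ATP and lipid vesicles, captured via phospho-AKT substrate antibody and streptavidin beads.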

[4] = tested on: LnCap; assay: MTS Assay, cell proliferation, LnCap; format: cell-based; conditions: Homo sapiens, read-out: Average of [CELL], IC50, MTS (72 hours; 10 Percent; FBS) LnCap
Procedure: as §1

[5] = tested on: BT474; assay: MTS Assay, cell proliferation, BT474; format: cell-based; conditions: Homo sapiens, BT-474, read-out: Average of [CELL], IC50, MTS (72 hours; 10 Percent; FBS) BT474
Procedure: as §1

[6] = tested on: AN3CA; assay: MTS Assay, cell proliferation, AN3CA; format: cell-based; conditions: Homo sapiens, AN3-CA, read-out: Average of [CELL], IC50, MTS (72 hours; 10 Percent; FBS) AN3CA
Procedure: as §1

[7] = values not marked with "*", read-out: Akt1 IC50, (AlphaScreen)
[8] = AlphaScreen assay (values not marked with *), read-out: Akt1 IC50, (AlphaScreen) (μM) (or if marked with “*” HTRF assay)

T1 sequence (P31749 whole entry): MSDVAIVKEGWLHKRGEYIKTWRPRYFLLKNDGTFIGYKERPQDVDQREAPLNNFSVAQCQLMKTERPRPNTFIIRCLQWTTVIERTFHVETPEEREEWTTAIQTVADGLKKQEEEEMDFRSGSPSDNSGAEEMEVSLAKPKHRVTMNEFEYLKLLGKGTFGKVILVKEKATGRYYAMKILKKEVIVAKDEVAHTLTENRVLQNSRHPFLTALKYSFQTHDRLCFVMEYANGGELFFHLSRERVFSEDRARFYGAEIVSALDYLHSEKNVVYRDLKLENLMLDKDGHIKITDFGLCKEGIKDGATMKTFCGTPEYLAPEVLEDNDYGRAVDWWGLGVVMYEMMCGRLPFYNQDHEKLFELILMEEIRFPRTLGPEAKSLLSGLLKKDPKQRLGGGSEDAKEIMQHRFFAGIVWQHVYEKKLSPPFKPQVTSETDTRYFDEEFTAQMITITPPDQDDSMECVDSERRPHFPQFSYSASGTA

Row | IC50 [1] [nM] | IC50 [2] [nM] | IC50 [3, 7] [µM] | IC50 [4] [nM] | IC50 [5] [nM] | IC50 [3, 8] [µM] | Structure (SMILES) | IC50 [6] [nM]
1 | 22100 | – | – | – | – | – | Nc1ncccc1-c1nc2cccnc2n1-c1ccc(-n2cncn2)cc1 [Example 31] | –
2 | 82800 | – | – | – | – | – | CC(C(=O)NCc1ccc(-n2c(-c3cccnc3N)nc3cccnc32)cc1)c1ccccc1 (stereo not drawn) [Example 51, N-{4-[2-(2-aminopyridin-3-yl)-3H-imidazo[4,5-b]pyridin-3-yl]benzyl}-2-phenylpropanamide] | –
3 | 3960 | – | – | – | – | – | Nc1ncccc1-c1nc2cccnc2n1-c1ccc(CC(=O)Nc2ccc(Cl)cn2)cc1 [Example 117, 2-{4-[2-(2-aminopyridin-3-yl)-3H-imidazo[4,5-b]pyridin-3-yl]phenyl}-N-(5-chloropyridin-2-yl)acetamide] | –
4 | 6840 | – | – | – | – | – | CCCCNC(=O)Cc1ccc(-n2c(-c3cccnc3N)nc3cccnc32)cc1 [Example 132, 2-{4-[2-(2-aminopyridin-3-yl)-3H-imidazo[4,5-b]pyridin-3-yl]phenyl}-N-butylacetamide] | –
5 | 7100 | – | – | – | – | – | Nc1ncccc1-c1nc2cc(-c3ccccc3Br)cnc2n1-c1ccc(CNC(=O)c2ccccc2)cc1 [Example 136, N-{4-[2-(2-aminopyridin-3-yl)-6-(2-bromophenyl)-3H-imidazo[4,5-b]pyridin-3-yl]benzyl}benzamide] | –
6 | 7800 | – | – | – | – | – | Nc1ncccc1-c1nc2cc(-c3ccc(F)cc3)cnc2n1-c1ccc(CNC(=O)c2ccccc2)cc1 [Example 141, N-{4-[2-(2-aminopyridin-3-yl)-6-(4-fluorophenyl)-3H-imidazo[4,5-b]pyridin-3-yl]benzyl}benzamide] | –
7 | – | 3300 | 0.013 | 1900 | 1300 | – | CC(=O)Nc1cccc(-c2ccc3nc(-c4cccnc4N)n(-c4ccc(CC(=O)Nc5ccccc5)cc4)c3n2)c1 [Example 261, 2-(4-(5-(3-acetamidophenyl)-2-(2-aminopyridin-3-yl)-3H-imidazo[4,5-b]pyridin-3-yl)phenyl)-N-phenylacetamide] | 2200
8 | – | 1600 | 0.014 | 2000 | 1200 | – | CC(=O)Nc1cccc(-c2ccc3nc(-c4cccnc4N)n(-c4ccc(CNC(=O)c5ccccc5)cc4)c3n2)c1 [Example 287, N-(4-(5-(3-acetamidophenyl)-2-(2-aminopyridin-3-yl)-3H-imidazo[4,5-b]pyridin-3-yl)benzyl)benzamide] | 1500
9 | – | 10000 | 0.0063 | 17000 | 3200 | – | CC(=O)Nc1cccc(NC(=O)Cc2ccc(-n3c(-c4cccnc4N)nc4ccc(-c5cccc(NC(C)=O)c5)nc43)cc2)c1 [Example 289, N-(3-acetamidophenyl)-2-(4-(5-(3-acetamidophenyl)-2-(2-aminopyridin-3-yl)-3H-imidazo[4,5-b]pyridin-3-yl)phenyl)acetamide] | 12000
10 | – | 3800 | 0.012 | 2100 | 620 | – | CC(=O)Nc1cccc(-c2ccc3nc(-c4cccnc4N)n(-c4ccc(CC(=O)Nc5ccc6nc(C)ccc6c5)cc4)c3n2)c1 [Example 290, 2-(4-(5-(3-acetamidophenyl)-2-(2-amino-pyridin-3-yl)-3H-imidazo[4,5-b]pyridin-3-yl)phenyl)-N-(2-methylquinolin-6-yl)acetamide] | 1100
11 | – | 7400 | 0.096 | 730 | 940 | – | CC(=O)Nc1ccc(-c2ccc3nc(-c4cccnc4N)n(-c4ccc(CNC(=O)c5ccc(C)c(F)c5)cc4)c3n2)cc1 [Example 292, N-(4-(5-(4-acetamidophenyl)-2-(2-aminopyridin-3-yl)-3H-imidazo[4,5-b]pyridin-3-yl)benzyl)-3-fluoro-4-methylbenzamide] | 2300
12 | – | 3300 | 0.016 | 950 | 1100 | – | CC(=O)Nc1cccc(-c2ccc3nc(-c4cccnc4N)n(-c4ccc(CC(=O)Nc5cccc(F)c5)cc4)c3n2)c1 [Example 294, 2-(4-(5-(3-acetamidophenyl)-2-(2-aminopyridin-3-yl)-3H-imidazo[4,5-b]pyridin-3-yl)phenyl)-N-(3-fluorophenyl)acetamide] | 1700
13 | – | 3800 | 0.076 | 1800 | 5000 | – | Cc1cnc2c(c1)nc(-c1cccnc1N)n2-c1ccc(CC(=O)Nc2ccc3ncccc3c2)cc1 [Example 295, 2-(4-(2-(2-aminopyridin-3-yl)-6-methyl-3H-imidazo[4,5-b]pyridin-3-yl)phenyl)-N-(quinolin-6-yl)acetamide] | 3300
14 | – | 33000 | 0.095 | 3900 | 6900 | – | CC(=O)Nc1cccc(-c2ccc3nc(-c4cccnc4N)n(-c4ccc(CC(=O)NC(C)C)cc4)c3n2)c1 [Example 296, 2-(4-(5-(3-acetamidophenyl)-2-(2-aminopyridin-3-yl)-3H-imidazo[4,5-b]pyridin-3-yl)phenyl)-N-isopropylacetamide] | 12000
15 | – | 15000 | 0.035 | 3000 | 3600 | – | CCCCNC(=O)Cc1ccc(-n2c(-c3cccnc3N)nc3ccc(-c4cccc(NC(C)=O)c4)nc32)cc1 [Example 297, 2-(4-(5-(3-acetamidophenyl)-2-(2-aminopyridin-3-yl)-3H-imidazo[4,5-b]pyridin-3-yl)phenyl)-N-butylacetamide] | 6500
16 | – | 13000 | 0.1 | 5700 | 6100 | – | Nc1ncccc1-c1nc2ccc(-c3cccnc3)nc2n1-c1ccc(CNC(=O)c2cccc(F)c2)cc1 [Example 333, N-(4-(2-(2-aminopyridin-3-yl)-5-(pyridin-3-yl)-3H-imidazo[4,5-b]pyridin-3-yl)benzyl)-3-fluorobenzamide] | 12000
17 | – | – | – | – | – | 0.011 | CN(C)S(=O)(=O)Nc1cccc(-c2ccc3nc(-c4cccnc4N)n(-c4ccc(C5(N)CCC5)cc4)c3n2)c1 [Example 455, N′-(3-{3-[4-(1-aminocyclobutyl)phenyl]-2-(2-aminopyridin-3-yl)-3H-imidazo[4,5-b]pyridin-5-yl}phenyl)-N,N-dimethylsulfamide] | –
18 | – | – | – | – | – | 0.0031 | Nc1ncccc1-c1nc2ccc(-c3cccc(-n4cccn4)c3)nc2n1-c1ccc(C2(N)CCC2)cc1 [Example 456, 3-{3-[4-(1-aminocyclobutyl)phenyl]-5-[3-(1H-pyrazol-1-yl)phenyl]-3H-imidazo[4,5-b]pyridin-2-yl}pyridin-2-amine] | –
19 | – | – | – | – | – | 0.0093 | Nc1ncccc1-c1nc2ccc(-c3cccc(N4CCC4)c3)nc2n1-c1ccc(C2(N)CCC2)cc1 [Example 457, 3-{3-[4-(1-aminocyclobutyl)phenyl]-5-(3-azetidin-1-ylphenyl)-3H-imidazo[4,5-b]pyridin-2-yl}pyridin-2-amine] | –
20 | – | – | – | – | – | 0.012 | Nc1ncccc1-c1nc2ccc(-c3cccc(N4CCCCCC4)c3)nc2n1-c1ccc(C2(N)CCC2)cc1 [Example 458, 3-{3-[4-(1-aminocyclobutyl)phenyl]-5-(3-azepan-1-ylphenyl)-3H-imidazo[4,5-b]pyridin-2-yl}pyridin-2-amine] | –
21 | – | – | – | – | – | 0.0077 | Nc1ncccc1-c1nc2ccc(-c3cccc(N4CCCOCC4)c3)nc2n1-c1ccc(C2(N)CCC2)cc1 [Example 459, 3-{3-[4-(1-aminocyclobutyl)phenyl]-5-[3-(1,4-oxazepan-4-yl)phenyl]-3H-imidazo[4,5-b]pyridin-2-yl}pyridin-2-amine] | –
22 | – | – | – | – | – | 0.011 | CN(C)C1CCN(c2cccc(-c3ccc4nc(-c5cccnc5N)n(-c5ccc(C6(N)CCC6)cc5)c4n3)c2)CC1 [Example 460, 3-(3-[4-(1-aminocyclobutyl)phenyl]-5-{3-[4-(dimethylamino)piperidin-1-yl]phenyl}-3H-imidazo[4,5-b]pyridin-2-yl)pyridin-2-amine] | –
23 | – | – | – | – | – | 0.01 | Nc1ncccc1-c1nc2ccc(-c3cccc(N4CCC(O)CC4)c3)nc2n1-c1ccc(C2(N)CCC2)cc1 [Example 462, 1-(3-{3-[4-(1-aminocyclobutyl)phenyl]-2-(2-aminopyridin-3-yl)-3H-imidazo[4,5-b]pyridin-5-yl}phenyl)piperidin-4-ol] | –
24 | – | – | – | – | – | 0.011 | Nc1ncccc1-c1nc2ccc(-c3cccc(N4CCC5(CC4)OCCO5)c3)nc2n1-c1ccc(C2(N)CCC2)cc1 [Example 464, 3-{3-[4-(1-aminocyclobutyl)phenyl]-5-[3-(1,4-dioxa-8-azaspiro[4.5]dec-8-yl)phenyl]-3H-imidazo[4,5-b]pyridin-2-yl}pyridin-2-amine] | –
25 | – | – | – | – | – | 0.0058 | Nc1ncccc1-c1nc2ccc(-c3ccc(N4CCOCC4)cc3)nc2n1-c1ccc(C2(N)CCC2)cc1 [Example 465, 3-{3-[4-(1-aminocyclobutyl)phenyl]-5-(4-morpholin-4-ylphenyl)-3H-imidazo[4,5-b]pyridin-2-yl}pyridin-2-amine hydrochloride] | –
26 | – | – | – | – | – | 0.0035 | Nc1ncccc1-c1nc2ccc(-c3cccc(N4CCOCC4=O)c3)nc2n1-c1ccc(C2(N)CCC2)cc1 [Example 466, 4-(3-{3-[4-(1-aminocyclobutyl)phenyl]-2-(2-aminopyridin-3-yl)-3H-imidazo[4,5-b]pyridin-5-yl}phenyl)morpholin-3-one hydrochloride] | –
